Where a name gives a salt, the structure may show the parent alone.
How the values were obtained:
Renal Hypertensives Rats = assay: Antihypertensive effects in renal hypertensive rats (left renal artery ligation); format: in vivo, rat
Description: This procedure increases blood pressure by increasing renin production with consequent elevation of AII levels. Compounds are administered orally at 100 mg/kg and/or intravenously via a cannula in the jugular vein at 10 mg/kg. Arterial blood pressure is continuously measured directly through a carotid artery cannula and recorded using a pressure transducer and a polygraph. Blood pressure levels after treatment are compared to pretreatment levels to determine the antihypertensive effects of the compounds (See Table 1).
Compound listed in Table 2 was tested in the same manner as described for Table 1, except that in the test for antihypertensive effects in renal hypertensive rats, the compounds were administered orally at 30 mg/kg and intravenously at 3 mg/kg.

dogs = conditions: cited from earlier work
AII = conditions: cited from earlier work
conscious dogs = assay: Hypotensive effects and inhibition of AII pressor response before and after furosemide in conscious dogs; format: in vivo, dog

## CCCCc1nc(Cl)c(C(=O)O)n1Cc1ccc(-c2ccccc2-c2nnn[nH]2)cc1 [Compound 2, 2-n-butyl-4-chloro-1-[(2'-(tetrazol-5-yl)-1,1'-biphenyl-4-yl)-methyl]-1H-imidazole-5-carboxylic acid]
Renal Hypertensives Rats; intravenous, 3.0 mg/kg or less
  Antihypertensive Effects in Renal Hypertensives Rats, Intravenous Activity: + (Significant decrease in blood pressure at 3.0 mg/kg or less)
Renal Hypertensives Rats; oral, 30 mg/kg or less
  Antihypertensive Effects in Renal Hypertensives Rats, Oral Activity: + (Significant decrease in blood pressure at 30 mg/kg or less)

## CNCC(=O)N[C@@H](CCCN=C(N)N)C(=O)N[C@H](C(=O)N[C@@H](Cc1ccc(O)cc1)C(=O)N[C@H](C(=O)N[C@@H](Cc1cnc[nH]1)C(=O)N1CCC[C@H]1C(=O)N[C@@H](C)C(=O)O)C(C)C)C(C)C [Saralasin, [Sar^1, Ala^8] AII]
dogs; dogs
  effect on renal vasoconstrictor effect of indomethacin and meclofenamate: inhibit the renal vasoconstrictor effect of indomethacin and meclofenamate
AII; mammals and man, when the (elevated) pressure is dependent on circulating AII
  lowering of arterial pressure: lower arterial pressure in mammals and man
AII; oral doses
  oral effectiveness: oral doses being ineffective
AII; parenteral administration
  duration of pharmacological effects: relatively short-lasting
AII; pithed rats
  antagonism of the actions of AII: one of the most potent competitive antagonists of the actions of AII
AII; when the pressure is not sustained by AII
  agonistic (pressor) effects: generally elicits pressor effects when the pressure is not sustained by AII

## CCCCc1nc(Cl)c(CO)n1Cc1ccc(-c2ccccc2-c2nnn[nH]2)cc1 [2-butyl-4-chloro-1-[2'-(1H-tetrazol-5-yl)biphenyl-4-yl)methyl]-5-hydroxymethylimidazole sodium salt]
Conscious dogs; furosemide-treated dogs, cumulative iv
  inhibition of pressor response to AII after furosemide: inhibited the pressor response to AII at the two higher doses
Conscious dogs; furosemide-treated dogs, cumulative iv 0.3 to 3 mg/kg
  decrease in blood pressure after furosemide: significant decrease in blood pressure in a dose-dependent manner
Conscious dogs; normotensive conscious dogs (n=4), cumulative iv 0.3 to 3 mg/kg, before furosemide
  blood pressure lowering: did not lower blood pressure
Conscious dogs; normotensive conscious dogs, cumulative iv 0.3 to 3 mg/kg, AII 0.1 μg/kg iv, 10 min post dose, before furosemide
  inhibition of pressor response to AII: effective in inhibiting the pressor response to AII

## NS(=O)(=O)c1cc(C(=O)O)c(NCc2ccco2)cc1Cl [furosemide, reference compound]
Conscious dogs; dogs (three), furosemide 10 mg/kg im at 18 and 2 hours before, PRA four days earlier 1.5±0.5
  Plasma renin activity (PRA): 19.9±7.2 ng AI/ml/hr

## C[C@H](CS)C(=O)N1CCC[C@H]1C(=O)O [captopril]
dogs; dogs with non-hypotensive hemorrhage
  effect on renal vasoconstrictor effect of indomethacin: reverse the renal vasoconstrictor effect of indomethacin

— US5663186A, “Treatment of atherosclerosis with angiotensin II receptor blocking imidazoles” (Merck & Co., Inc., priority 1995, dated 1997)
